Assay results from patent publication US9399145B2, “Nanoscale neuromodulating platform for retina neuron activation apparatus and method” (The Board of Trustees of the University of Illinois, priority 2005, dated 2016).

Legend:
[1] = system: Purkinje neurons (PNs) of the cerebellar slice; assay: Whole-cell current clamp of Purkinje neurons, action potential firing; assay type: cell-based, mouse
Experimental: The effects of MPC088 on action potential firing in PNs of the cerebellar slice were also examined. These experiments were similar to those, except that the cells were recorded under current-clamp in order to allow the cell to spike. […] Representative data was obtained by whole-cell current-clamp recording from a PN which was injected with 468 pA to elicit a high-frequency train of action potentials. […] The cell was then exposed for 1-s durations to UV light (UV1), then blue light, and then again with UV (UV2). […] Below this trace is plotted the instantaneous firing frequency vs. time; the dashed line reflects the average firing frequency during the 1-s epoch that preceded the first UV exposure (FIG. 41a). FIG. 41b depicts a summary of results from experiments of the type shown in a. Average spike frequencies were obtained for each cell in each of five 1-s epochs, then normalized to the pre-GABA/MPC088 firing frequency (n=8 cells from 4 animals). Error bars here and in c represent the SEM. Repeated-measures ANOVA on the aggregate data yielded F(3,21)=10.213, p<0.001. […] Significance was determined from post-hoc paired-sample t-tests corrected for multiple comparisons, which yielded p<0.02. […]
To further address whether MPC088 has non-specific effects on excitability, the spikes elicited in the experiment described in FIG. 41 were analyzed. […] Three action potential (AP) parameters were measured: peak amplitude, half width, and maximum rise slope. […] AP waveform parameters were calculated for pre-puff, blue light, and UV epochs. […]
For the voltage-clamp experiments of FIG. 40, each cell was […] between 1-6 trials of the drug application+light flash protocol. […] A peri-stimulus time histogram (PSTH) was calculated for each trial using 250-ms time bins; these were averaged across trials to produce a PSTH for the experiment, using the software TaroTools (Dr. Taro Ishikawa, Jikei University School of Medicine, Tokyo, Japan) and Igor Pro 6.2 (WaveMetrics, Inc., Lake Oswego, Oreg.).

[2] = system: AMPAR/NMDAR-mediated EPSCs; assay: AMPAR/NMDAR-mediated EPSCs in hippocampal CA1 pyramidal neurons; assay type: cell-based, mouse
Experimental: To test whether MPC088 affects excitatory synaptic transmission, whole-cell voltage-clamp recordings were carried out in CA1 pyramidal neurons of mouse hippocampus. As in the experiments of FIG. 42, these recordings were obtained with perfusion of the slice with cis-dominant MPC088 (30 μM) under recirculation. PTX […] was also included in the external solution to block GABAARs. EPSCs were evoked by stimulating the Schaffer collaterals with a bipolar matrix microelectrode (FHC, Inc., Bowdoin, Me.), and recorded at a holding potential of +40 mV to uncover the NMDA receptor (NMDAR) component of the EPSC. Paired electrical stimuli separated by 80 ms were also presented to assess possible effects of MPC088 on short-term plasticity. Each cell was […] 20 interleaved trials in which the cell was exposed to two 0.1-s UV pulses surrounding a 1-s period of either blue light or no light (FIG. 50). […] Each trace is the average of 10 traces with stimulus and shutter artifacts blanked for clarity. The black and grey asterisks indicate the time points, respectively, for the current measurements of the AMPAR- and NMDAR-mediated components. FIG. 50b depicts summary data including that shown in a. Plotted for the blue light and no blue light conditions are the average current amplitudes measured at the peak of the first EPSC (black bars), and just prior to the second stimulus (grey bars), as indicated by the asterisks in a.
To quantify the effects of MPC088 on AMPA receptors (AMPARs) and NMDARs, for the first EPSC of the pair, the peak current and the current just prior to the second stimulus were measured, which reflect AMPAR and NMDAR components, respectively, of the EPSC^41. […] Additionally, blue light had no significant effect on the decay of the compound current (average τ from single-exponential fitting to the decay of the second EPSC: Blue off, 131±11 ms; Blue on, 131±11 ms; p=0.89). There was also no significant effect of blue light on the paired-pulse ratio (PPR, measured as Peak(2nd EPSC)/Peak(1st EPSC): Blue off, 1.72±0.07; Blue on, 1.85±0.14; p=0.34).
Recordings from hippocampal CA1 pyramidal neurons were obtained from 17-23 day old animals. Briefly, the hippocampus was completely removed from the brain and then sliced in 300-μm sections. Prior to recording, a cut was made with a scalpel blade between CA1 and CA3 in order to completely sever all connections between the two; this was done in order to abolish polysynaptic activity due to antidromic activation of CA3 pyramidal cells. Recordings were carried out under voltage clamp with an internal solution containing (in mM): 130 CsCl, 10 HEPES, 1 CaCl2, 2 ATP, 0.2 GTP, 10 EGTA, and 5 QX-314 Br, and pH was adjusted to 7.3 with CsOH. All data from these experiments are presented as mean±SEM.

CC(C)c1cc(CCCC(=O)NCc2ccc(/N=N/c3ccc(C(=O)NCCN)cc3)cc2)cc(C(C)C)c1O [MPC088, (E)-N-(2-Aminoethyl)-4-((4-((4-(4-hydroxy-3,5-diisopropylphenyl)butanamido)methyl)phenyl)diazenyl)benzamide]
firing rate produced by blue light relative to that produced by UV light ([1]; 10 μM GABA + 30 μM MPC088, UV-Blue-UV flashes): 52±14%
decrease of firing rate ([1]; 10 μM GABA + 30 μM trans-dominant MPC088): approximately 50%
effects on AP waveform ([1]; peak amplitude, half width, maximum rise slope): no detectable effects
actions on AMPAR-mediated and NMDAR-mediated EPSCs ([2]; 30 μM): negligible actions on AMPAR-mediated and NMDAR-mediated EPSCs
average τ of decay of the second EPSC ([2]; 30 μM MPC088, Blue off): 131 ± 11 ms
paired-pulse ratio (PPR) ([2]; 30 μM MPC088, Blue off): 1.72±0.07
average τ of decay of the second EPSC ([2]; 30 μM MPC088, Blue on): 131 ± 11 ms
paired-pulse ratio (PPR) ([2]; 30 μM MPC088, Blue on): 1.85±0.14
